# Results: patent US20020055528A1, “Artemisinin analogs having antimalarial, antiproliferative, and antitumor activities and chemoselective methods of making the same” (priority 1999, published 2002)
# Read-outs that look alike come from different tables or passages of the source.
# Columns and labels:
# MOLT-4 = settings: for Log10TGI: PG=0
# Method: The screening assay is performed on 96-well microtitre plates. Relatively high initial inoculation densities are used, in order to permit measurement of “time-zero” values and to enhance the screen's ability to detect and provide some differentiation between antiproliferative and cytotoxic response parameters. […] The inoculated microtitre plates are pre-incubated for 24 hours at 37θC prior to drug additions. The five drug dilutions tested routinely range from 10^−4 to 10^−8 molar. Higher or lower concentration ranges may be selected on a nonroutine basis if appropriate solubility and/or prior biological information or other screening data so dictate. Duplicate wells are prepared for all concentrations, (concentration is often denoted by placing brackets around a number); “time-zero” and “no drug” controls are also provided for each test. The minimum amount of compound required for a one-time evaluation in the routine screen can be calculated from the knowledge that each test requires a total of approximately 40 ml (0.04 liter) of cell culture medium containing the highest desired drug concentration. Thus, the amount (grams) of sample required (assuming an upper test concentration limit of 10^−4 M) is: molecular weight of compound×[…]. After a 48 hour incubation (37θC) with the test compound, the cells are fixed in situ to the bottoms of the microtitre wells by addition of 50 ul of either 50% trichloroacetic acid (for adherent cell lines) or 80% trichloroacetic acid (for settled cell suspension lines), followed by incubation for 60 minutes at 4θC. The cellular protein in each well is assayed using a sulforhodamine B (SRB) stain procedure. Briefly, after discarding the supernatants, the microtitre plates are washed 5 times with deionized water and air-dried. One hundred microliters of SRB solution (0.4% w/v in 1% acetic acid) is added to each microtitre well and incubated for 10 minutes at room temperature. Unbound SRB is removed by washing 5 times with 1 % acetic acid. The plates are air-dried, the bound stain is solubilized with Tris buffer, and the optical densities read at 515 nm. SRB is a bright pink anionic dye which, in dilute acetic acid, binds electrostatically to the basic amino acids of TCA-fixed cells. Cryopreserved master stocks of all the lines are maintained, and cultures used for screening are replaced from the master stock after no more than twenty passages in the screening laboratory. The cell line panel consists of 60 lines, organized into nine, disease-related subpanels including leukemia, non-small-cell lung cancer, colon, CNS, melanoma, ovarian, renal, prostate and breast cancers.
# The response parameters G150 and LC50 are interpolated values representing the concentrations at which the percentage growth (PG) is +50 and −50, respectively:
# GI50 is the concentration for which the PG=+50. At this value the increase from time tzero, in the number or mass of cells in the test well is only 50% as much as the corresponding increase in the control well during this period of the experiment, see Table II. A drug effect of this intensity is interpreted as primary growth inhibition.
# TGI is the concentration for which PG=0. At this value the number or mass of cells in the well at the end of the experiment equals the number or mass of cells in the well at time tzero, see Table III. A drug effect of this intensity is regarded as cytostasis.
# LC50 is the concentration for which the PG=−50. At this value, the number or mass of cells in the test well at the end of the experiment is half that at time tzero, see Table IV. This is interpreted as cytotoxicity.
# U251 = assay: NCI 60 cell line screen (SRB), CNS Cancer; assay type: cell-based; settings: for Log10TGI: PG=0
# A498 = assay: NCI 60 cell line screen (SRB), Renal Cancer; assay type: cell-based; settings: for Log10TGI: PG=0
# EKVX = assay: NCI 60 cell line screen (SRB), Non-Small Cell Lung Cancer; assay type: cell-based; settings: for Log10TGI: PG=0
# NCI-H23 = assay: as above; assay type: cell-based; settings: for Log10TGI: PG=0
# SNB-75 = assay: NCI 60 cell line screen (SRB), CNS Cancer; assay type: cell-based
# KM12 = assay: NCI 60 cell line screen (SRB), Colon Cancer; assay type: cell-based; settings: for Log10TGI: PG=0
# BT-549 = assay: NCI 60 cell line screen (SRB), Breast Cancer; assay type: cell-based
# HL-60(TB) = assay: NCI 60 cell line screen (SRB), Leukemia; assay type: cell-based; settings: for Log10TGI: PG=0
# TK-10 = assay: NCI 60 cell line screen (SRB), Renal Cancer; assay type: cell-based; settings: for Log10TGI: PG=0
# SR = assay: NCI 60 cell line screen (SRB), Leukemia; assay type: cell-based; settings: for Log10TGI: PG=0
# DU-145 = assay: NCI 60 cell line screen (SRB), Prostate Cancer; assay type: cell-based; settings: for Log10TGI: PG=0
# OVCAR-3 = assay: NCI 60 cell line screen (SRB), Ovarian Cancer; assay type: cell-based; settings: PG=0
# [1] = Table IV (LC50, PG=−50), MOLT−4
smiles,measurement,setting,value
"C[C@@H]1CC[C@H]2[C@@H](C)C(=O)O[C@@H]3O[C@]4(C)CC[C@@H]1[C@]32OO4 [Artemisinin, artemisinin]",Log10GI50,"MOLT-4; MOLT-4, PG=+50",−4.73 log10M
same,Log10TGI,MOLT-4; MOLT−4,−4.00 log10M
same,Log10GI50,MOLT-4; [1],>−4.00 log10M
same,drug concentration for cytotoxicity (percentage growth −50),"MOLT-4; human, 48 h",greater than 10^−4 M
same,Log10TGI,U251,>−4.00 log10M
same,Log10GI50,U251; PG=+50,>−4.00 log10M
same,Log10GI50,"U251; Table IV (LC50, PG=−50)",>−4.00 log10M
same,Log10TGI,A498,>−4.00 log10M
same,Log10GI50,A498; PG=+50,>−4.00 log10M
same,Log10GI50,"A498; Table IV (LC50, PG=−50)",>−4.00 log10M
same,Log10TGI,EKVX,>−4.00 log10M
same,Log10GI50,EKVX; PG=+50,−4.17 log10M
same,Log10GI50,"EKVX; Table IV (LC50, PG=−50)",>−4.00 log10M
same,Log10TGI,NCI-H23,>−4.00 log10M
same,Log10TGI,SNB-75; PG=0,>−4.00 log10M
same,Log10TGI,KM12,>−4.00 log10M
same,Log10GI50,KM12; PG=+50,>−4.00 log10M
same,Log10GI50,"KM12; Table IV (LC50, PG=−50)",>−4.00 log10M
same,Log10TGI,BT-549; PG=0,>−4.00 log10M
same,Log10GI50,"BT-549; Table IV (LC50, PG=−50)",>−4.00 log10M
same,Log10TGI,HL-60(TB),−4.00 log10M
same,Log10GI50,HL-60(TB); PG=+50,−4.26 log10M
same,Log10GI50,"HL-60(TB); Table IV (LC50, PG=−50)",>−4.00 log10M
same,Log10TGI,TK-10,>−4.00 log10M
same,Log10GI50,TK-10; PG=+50,>−4.00 log10M
same,Log10GI50,"TK-10; Table IV (LC50, PG=−50)",>−4.00 log10M
same,Log10TGI,SR,>−4.00 log10M
same,Log10GI50,SR; PG=+50,>−4.00 log10M
same,Log10GI50,"SR; Table IV (LC50, PG=−50)",>−4.00 log10M
"CC(=O)O[C@H]1C(=O)[C@@]2(C)[C@H]([C@H](OC(=O)c3ccccc3)[C@]3(O)C[C@H](OC(=O)[C@H](O)[C@@H](NC(=O)c4ccccc4)c4ccccc4)C(C)=C1C3(C)C)[C@]1(OC(C)=O)CO[C@@H]1C[C@@H]2O [Paclitaxel, paclitaxel, reference compound]",Log10GI50,"MOLT-4; MOLT-4, PG=+50",−11.07 log10M
same,Log10TGI,MOLT-4; MOLT−4,−11.07 log10M
same,Log10GI50,MOLT-4; [1],>−4.00 log10M
same,drug concentration for cytotoxicity (percentage growth −50),"MOLT-4; human, 48 h",greater than 10^−4 M
same,Log10TGI,DU-145,>−4.00 log10M
same,Log10GI50,DU-145; PG=+50,−9.38 log10M
same,Log10GI50,"DU-145; Table IV (LC50, PG=−50)",>−4.00 log10M
same,Log10TGI,U251,−4.32 log10M
same,Log10GI50,U251; PG=+50,−11.29 log10M
same,Log10GI50,"U251; Table IV (LC50, PG=−50)",−4.15 log10M
same,Log10GI50,A498; PG=+50,−7.14 log10M
same,Log10GI50,"A498; Table IV (LC50, PG=−50)",−4.13 log10M
same,Log10TGI,KM12,−4.36 log10M
same,Log10GI50,KM12; PG=+50,−11.43 log10M
same,Log10GI50,"KM12; Table IV (LC50, PG=−50)",>−4.00 log10M
same,Log10GI50,BT-549; PG=+50,−9.81 log10M
same,Log10TGI,HL-60(TB),−11.57 log10M
same,Log10GI50,HL-60(TB); PG=+50,−11.57 log10M
same,Log10GI50,"HL-60(TB); Table IV (LC50, PG=−50)",>−4.53 log10M
same,Log10GI50,TK-10; PG=+50,−7.89 log10M
same,Log10TGI,OVCAR-3,−4.55 log10M
same,Log10GI50,"SR; Table IV (LC50, PG=−50)",>−4.00 log10M
CC1=C(C=Cc2cccc(C=CC3=C(C)C4CCC(C)C5CCC6(C)OOC45C(O3)O6)c2)OC2OC3(C)CCC4C(C)CCC1C24OO3 (centres unmarked) [VII-f],drug concentration for cytotoxicity (percentage growth −50),MOLT-4,greater than 10^−4 M
same,drug concentration for cytostasis (percentage growth 0),"MOLT-4; MOLT-4, FIGS. 6a-6e",approximately 10^−4 M
same,drug concentration for primary growth inhibition (percentage growth +50),"MOLT-4; MOLT-4, FIGS. 6a-6e",greater than 10^−6 molar
same,Log10GI50,"MOLT-4; MOLT-4, PG=+50",−6.23 log10M
same,Log10TGI,MOLT-4; MOLT−4,−6.23 log10M
same,Log10GI50,MOLT-4; [1],>−4.00 log10M
same,Log10TGI,DU-145,>−4.00 log10M
same,Log10GI50,DU-145; PG=+50,−5.16 log10M
same,Log10GI50,"DU-145; Table IV (LC50, PG=−50)",>−4.00 log10M
same,Log10TGI,U251,>−4.00 log10M
same,Log10GI50,U251; PG=+50,−6.03 log10M
same,Log10GI50,"U251; Table IV (LC50, PG=−50)",>−4.00 log10M
same,Log10TGI,A498,−4.37 log10M
same,Log10GI50,A498; PG=+50,−4.79 log10M
same,Log10GI50,"A498; Table IV (LC50, PG=−50)",>−4.00 log10M
same,Log10TGI,EKVX,−4.58 log10M
same,Log10GI50,EKVX; PG=+50,−6.21 log10M
same,Log10GI50,"EKVX; Table IV (LC50, PG=−50)",>−4.00 log10M
same,Log10TGI,NCI-H23,−4.36 log10M
same,log10 GI50 or LC50 (see conditions),NCI-H23; PG=+50,−5.32 log10M
same,log10 GI50 or LC50 (see conditions),"NCI-H23; Table IV (LC50, PG=−50)",>−4.00 log10M
same,Log10 GI50 (PG=+50) or LC50 (PG=−50),SNB-75; PG=+50,−5.84 log10M
same,Log10 GI50 (PG=+50) or LC50 (PG=−50),"SNB-75; Table IV (LC50, PG=−50)",>−4.00 log10M
same,Log10TGI,KM12,>−4.00 log10M
same,Log10GI50,KM12; PG=+50,−6.23 log10M
same,Log10GI50,"KM12; Table IV (LC50, PG=−50)",>−4.00 log10M
same,Log10GI50,BT-549; PG=+50,−6.50 log10M
same,Log10GI50,"BT-549; Table IV (LC50, PG=−50)",>−4.00 log10M
same,Log10TGI,HL-60(TB),−6.71 log10M
same,Log10GI50,HL-60(TB); PG=+50,−6.71 log10M
same,Log10GI50,"HL-60(TB); Table IV (LC50, PG=−50)",>−4.00 log10M
same,Log10TGI,TK-10,>−4.00 log10M
same,Log10GI50,TK-10; PG=+50,−5.44 log10M
same,Log10GI50,"TK-10; Table IV (LC50, PG=−50)",>−4.00 log10M
same,Log10TGI,OVCAR-3,>−4.00 log10M
same,Log10TGI,SR,−6.19 log10M
same,Log10GI50,SR; PG=+50,−6.19 log10M
same,Log10GI50,"SR; Table IV (LC50, PG=−50)",>−4.00 log10M
